Data from BindingDB's records for doi:10.1016/j.bmcl.2007.08.017 (Johnson & Johnson Pharmaceutical Research and Development, 2007).

Experiment: Binding affinity at human histamine H3

**Q.** With CSc1ccc(C2CN(C)Cc3cc(Oc4cc(CN5CCCCC5)ccn4)ccc32)cc1 (configuration not stated) [2-methyl-4-(4-(methylthio)phenyl)-7-(4-(piperidin-1-ylmethyl)pyridin-2-yloxy)-1,2,3,4-tetrahydroisoquinoline] as the compound, how does the Ki read?
**A.** 34.3 nM

**Q.** Which Ki does the source give for CSc1ccc(C2CN(C)Cc3cc(Oc4ccc(CN5CCCCC5)cc4)ccc32)cc1 (configuration not stated) [2-methyl-4-(4-(methylthio)phenyl)-7-(4-(piperidin-1-ylmethyl)phenoxy)-1,2,3,4-tetrahydroisoquinoline] here?
**A.** 22.7 nM

**Q.** For COc1ccc(C2CN(C)Cc3cc(OCCCN4CCCCC4)ncc32)cc1 (configuration not stated) [4-(4-methoxyphenyl)-2-methyl-7-(3-(piperidin-1-yl)propoxy)-1,2,3,4-tetrahydro-2,6-naphthyridine], which Ki is on record?
**A.** 12 nM

**Q.** With CSc1ccc(C2CN(C)Cc3cc(Oc4ccc(CN5CCCCC5)nc4)ccc32)cc1 (configuration not stated) [2-methyl-4-(4-(methylthio)phenyl)-7-(6-(piperidin-1-ylmethyl)pyridin-3-yloxy)-1,2,3,4-tetrahydroisoquinoline] as the compound, how does the Ki read?
**A.** 24.3 nM

**Q.** Which Ki does the source give for CSc1ccc(C2CN(C)Cc3cc(Oc4ncc(CN5CCCCC5)s4)ccc32)cc1 (configuration not stated) [2-methyl-4-(4-(methylthio)phenyl)-7-(5-(piperidin-1-ylmethyl)thiazol-2-yloxy)-1,2,3,4-tetrahydroisoquinoline] here?
**A.** 20.7 nM

**Q.** For CSc1ccc(C2CN(C)Cc3cc(Oc4nc(CN5CCCCC5)cs4)ccc32)cc1 (configuration not stated) [2-methyl-4-(4-(methylthio)phenyl)-7-(4-(piperidin-1-ylmethyl)thiazol-2-yloxy)-1,2,3,4-tetrahydroisoquinoline], which Ki is on record?
**A.** 20.7 nM

**Q.** For CSc1ccc(C2CN(C)Cc3cc(Oc4ccc(CN5CCCCC5)cn4)ccc32)cc1 (configuration not stated) [2-methyl-4-(4-(methylthio)phenyl)-7-(5-(piperidin-1-ylmethyl)pyridin-2-yloxy)-1,2,3,4-tetrahydroisoquinoline], which Ki is on record?
**A.** 8.2 nM

**Q.** With CSc1ccc(C2CN(C)Cc3cc(Oc4ccc(CN5CCC(F)CC5)cn4)ccc32)cc1 (configuration not stated) [7-(5-((4-fluoropiperidin-1-yl)methyl)pyridin-2-yloxy)-2-methyl-4-(4-(methylthio)phenyl)-1,2,3,4-tetrahydroisoquinoline] as the compound, how does the Ki read?
**A.** 110 nM

**Q.** For CSc1ccc(C2CN(C)Cc3cc(Oc4nc(CN5CCOCC5)cs4)ccc32)cc1 (configuration not stated) [2-methyl-4-(4-(methylthio)phenyl)-7-(4-(morpholinomethyl)thiazol-2-yloxy)-1,2,3,4-tetrahydroisoquinoline], which Ki is on record?
**A.** 201 nM

**Q.** For CSc1ccc(C2CN(C)Cc3cccc(Oc4cncc(CN5CCCCC5)c4)c32)cc1 (configuration not stated) [2-methyl-4-(4-(methylthio)phenyl)-5-(5-(piperidin-1-ylmethyl)pyridin-3-yloxy)-1,2,3,4-tetrahydroisoquinoline], which Ki is on record?
**A.** 511 nM

**Q.** For CSc1ccc(C2CN(C)Cc3cc(Oc4cncc(CN5CCCCC5)c4)ccc32)cc1 (configuration not stated) [2-methyl-4-(4-(methylthio)phenyl)-7-(5-(piperidin-1-ylmethyl)pyridin-3-yloxy)-1,2,3,4-tetrahydroisoquinoline], which Ki is on record?
**A.** 109 nM

**Q.** For CSc1ccc(C2CN(C)Cc3cc(Oc4ccnc(CN5CCCCC5)c4)ccc32)cc1 (configuration not stated) [2-methyl-4-(4-(methylthio)phenyl)-7-(2-(piperidin-1-ylmethyl)pyridin-4-yloxy)-1,2,3,4-tetrahydroisoquinoline], which Ki is on record?
**A.** 323 nM

**Q.** With CSc1ccc(C2CN(C)Cc3cc(Oc4ccc(CN5CCOCC5)cn4)ccc32)cc1 (configuration not stated) [2-methyl-4-(4-(methylthio)phenyl)-7-(5-(morpholinomethyl)pyridin-2-yloxy)-1,2,3,4-tetrahydroisoquinoline] as the compound, how does the Ki read?
**A.** 260 nM

**Q.** Which Ki does the source give for CN(C)CCC(Oc1ccccc1)c1ccc(OCCCN2CCCCC2)cc1 (configuration not stated) [N,N-dimethyl-3-phenoxy-3-(4-(3-(piperidin-1-yl)propoxy)phenyl)propan-1-amine] here?
**A.** 0.72 nM

**Q.** For CSc1ccc(C2CN(C)Cc3cc(Oc4cccc(CN5CCCCC5)n4)ccc32)cc1 (configuration not stated) [2-methyl-4-(4-(methylthio)phenyl)-7-(6-(piperidin-1-ylmethyl)pyridin-2-yloxy)-1,2,3,4-tetrahydroisoquinoline], which Ki is on record?
**A.** 51 nM

**Q.** Which Ki does the source give for CSc1ccc(C2CN(C)Cc3cccc(Oc4ccnc(CN5CCCCC5)c4)c32)cc1 (configuration not stated) [2-methyl-4-(4-(methylthio)phenyl)-5-(2-(piperidin-1-ylmethyl)pyridin-4-yloxy)-1,2,3,4-tetrahydroisoquinoline] here?
**A.** 265 nM

**Q.** With CSc1ccc(C2CN(C)Cc3cccc(Oc4cccc(CN5CCCCC5)c4)c32)cc1 (configuration not stated) [2-methyl-4-(4-(methylthio)phenyl)-5-(3-(piperidin-1-ylmethyl)phenoxy)-1,2,3,4-tetrahydroisoquinoline] as the compound, how does the Ki read?
**A.** 253 nM
